Test results: publication PMC5218480 (PLoS ONE, 2017)

System: MV-4-11 cells
Test: Gene expression microarray analysis (Affymetrix PrimeView) and GSEA
Format: cell-based, human
Set-up: RFU PODN (11730768_x_at) / Fold change /veh PODN (11730768_x_at) / RFU LINC00158 (11744669_a_at) / Fold change /veh LINC00158 (11744669_a_at) / RFU DUSP10 (11751237_a_at) / Fold change /veh DUSP10 (11751237_a_at) / RFU ID3 (11757404_x_at) / Fold change /veh ID3 (11757404_x_at) / RFU PLEKHG5 (11737974_s_at) / Fold change /veh PLEKHG5 (11737974_s_at) / RFU LRRC4B (11730491_at) / Fold change /veh LRRC4B (11730491_at) / RFU GIMAP4 (11747438_a_at) / Fold change /veh GIMAP4 (11747438_a_at) / RFU KRT8 (11758183_x_at) / Fold change /veh KRT8 (11758183_x_at) / RFU CNN1 (11734310_a_at) / Fold change /veh CNN1 (11734310_a_at) / RFU VPS37D (11726825_at) / Fold change /veh VPS37D (11726825_at) / RFU C10orf10 (11716522_x_at) / Fold change /veh C10orf10 (11716522_x_at) / RFU KIR2DL2 /// KIR2DL4 /// KIR2DL5A /// KIR2DL5B /// KIR2DS1 /// KIR2DS2 /// KIR2DS3 /// KIR2DS4 /// KIR3DL3 /// KIR3DL3 /// KIR3DS1 (11738374_at) / Fold change /veh KIR2DL2 /// KIR2DL4 /// KIR2DL5A /// KIR2DL5B /// KIR2DS1 /// KIR2DS2 /// KIR2DS3 /// KIR2DS4 /// KIR3DL3 /// KIR3DL3 /// KIR3DS1 (11738374_at) / RFU C1QL1 (11718748_at) / Fold change /veh C1QL1 (11718748_at) / RFU TMPRSS4 (11747572_a_at) / Fold change /veh TMPRSS4 (11747572_a_at) / RFU HAMP (11756126_x_at) / Fold change /veh HAMP (11756126_x_at) / RFU RNFT2 (11725882_a_at) / Fold change /veh RNFT2 (11725882_a_at) / RFU NR4A2 (11747474_a_at) / Fold change /veh NR4A2 (11747474_a_at) / RFU ABCC12 (11746883_a_at) / Fold change /veh ABCC12 (11746883_a_at) / RFU TMEM136 (11760407_x_at) / Fold change /veh TMEM136 (11760407_x_at) / RFU CLDN22 /// WWC2 (11732394_at) / Fold change /veh CLDN22 /// WWC2 (11732394_at) / RFU HLA-DPB1 (11760878_x_at) / Fold change /veh HLA-DPB1 (11760878_x_at) / RFU SPINT1 (11716480_a_at) / Fold change /veh SPINT1 (11716480_a_at) / RFU GAP43 (11754022_s_at) / Fold change /veh GAP43 (11754022_s_at) / RFU A4GNT (11735810_at) / Fold change /veh A4GNT (11735810_at) / RFU PRB3 (11715151_x_at) / Fold change /veh PRB3 (11715151_x_at) / RFU TUBB4B (11761932_at) / Fold change /veh TUBB4B (11761932_at) / RFU CAPN14 (11732068_a_at) / Fold change /veh CAPN14 (11732068_a_at) / RFU TMCC2 (11721928_a_at) / Fold change /veh TMCC2 (11721928_a_at) / RFU IRGQ (11745062_a_at) / Fold change /veh IRGQ (11745062_a_at) / RFU FAM174B (11720279_a_at) / Fold change /veh FAM174B (11720279_a_at) / RFU TMPRSS4 (11748680_a_at) / Fold change /veh TMPRSS4 (11748680_a_at) / RFU FAM212B (11763350_a_at) / Fold change /veh FAM212B (11763350_a_at) / RFU PLEKHG5 (11743358_a_at) / Fold change /veh PLEKHG5 (11743358_a_at) / RFU ZSCAN30 (11745921_a_at) / Fold change /veh ZSCAN30 (11745921_a_at) / RFU CMKLR1 (11741424_a_at) / Fold change /veh CMKLR1 (11741424_a_at) / RFU LOC101060620 /// MAPK8IP1 (11723275_at) / Fold change /veh LOC101060620 /// MAPK8IP1 (11723275_at) / RFU SPTSSB (11747773_x_at) / Fold change /veh SPTSSB (11747773_x_at) / RFU PRSS12 (11739890_at) / Fold change /veh PRSS12 (11739890_at) / RFU BIN1 (11741810_x_at) / Fold change /veh BIN1 (11741810_x_at) / RFU WNT11 (11732464_a_at) / Fold change /veh WNT11 (11732464_a_at) / RFU C10orf10 (11716521_a_at) / Fold change /veh C10orf10 (11716521_a_at) / RFU C5orf56 (11738089_at) / Fold change /veh C5orf56 (11738089_at) / RFU CYB561 (11721691_x_at) / Fold change /veh CYB561 (11721691_x_at) / RFU ANKRD19P (11752326_a_at) / Fold change /veh ANKRD19P (11752326_a_at) / RFU OR2T12 /// OR2T33 /// OR2T8 (11738714_s_at) / Fold change /veh OR2T12 /// OR2T33 /// OR2T8 (11738714_s_at) / RFU VCAN (11748164_a_at) / Fold change /veh VCAN (11748164_a_at) / RFU JSRP1 (11732532_at) / Fold change /veh JSRP1 (11732532_at) / RFU KRTAP10-11 (11738290_x_at) / Fold change /veh KRTAP10-11 (11738290_x_at) / RFU MYO3A (11730013_a_at) / Fold change /veh MYO3A (11730013_a_at) / RFU EBF3 (11725865_a_at) / Fold change /veh EBF3 (11725865_a_at) / RFU CAMK2N1 (11719241_x_at) / Fold change /veh CAMK2N1 (11719241_x_at) / RFU C5orf56 (11738088_a_at) / Fold change /veh C5orf56 (11738088_a_at) / RFU OLFML3 (11715873_a_at) / Fold change /veh OLFML3 (11715873_a_at) / RFU LOC100653217 /// NTM (11731650_a_at) / Fold change /veh LOC100653217 /// NTM (11731650_a_at) / RFU MAPK11 (11762145_a_at) / Fold change /veh MAPK11 (11762145_a_at) / RFU FIZ1 (11724087_x_at) / Fold change /veh FIZ1 (11724087_x_at) / RFU OASL (11726364_x_at) / Fold change /veh OASL (11726364_x_at) / RFU SOX15 (11748057_x_at) / Fold change /veh SOX15 (11748057_x_at) / RFU CD79A (11719716_a_at) / Fold change /veh CD79A (11719716_a_at) / RFU HIST1H1D (11736915_at) / Fold change /veh HIST1H1D (11736915_at) / RFU CASKIN2 (11723855_a_at) / Fold change /veh CASKIN2 (11723855_a_at) / RFU LOC730098 (11760151_x_at) / Fold change /veh LOC730098 (11760151_x_at) / RFU OR4N2 (11742367_at) / Fold change /veh OR4N2 (11742367_at) / RFU PRRT2 (11749266_a_at) / Fold change /veh PRRT2 (11749266_a_at) / RFU SNX32 (11753110_a_at) / Fold change /veh SNX32 (11753110_a_at) / RFU CDHR5 (11726645_a_at) / Fold change /veh CDHR5 (11726645_a_at) / RFU RCAN1 (11760418_a_at) / Fold change /veh RCAN1 (11760418_a_at) / RFU FAM167A (11723789_a_at) / Fold change /veh FAM167A (11723789_a_at) / RFU FAM26E (11764081_at) / Fold change /veh FAM26E (11764081_at) / RFU ISYNA1 (11749810_s_at) / Fold change /veh ISYNA1 (11749810_s_at) / RFU ACY1 (11761880_at) / Fold change /veh ACY1 (11761880_at) / RFU 11764098_at / Fold change /veh 11764098_at / RFU SAMD14 (11745864_x_at) / Fold change /veh SAMD14 (11745864_x_at) / RFU NPB (11741838_a_at) / Fold change /veh NPB (11741838_a_at) / RFU TMPRSS6 (11731388_a_at) / Fold change /veh TMPRSS6 (11731388_a_at) / RFU KRTAP10-2 (11738614_at) / Fold change /veh KRTAP10-2 (11738614_at) / RFU ARHGAP8 /// PRR5-ARHGAP8 (11727945_x_at) / Fold change /veh ARHGAP8 /// PRR5-ARHGAP8 (11727945_x_at) / RFU KRTAP5-7 /// NADSYN1 (11734609_at) / Fold change /veh KRTAP5-7 /// NADSYN1 (11734609_at) / RFU RASL12 (11751679_a_at) / Fold change /veh RASL12 (11751679_a_at) / RFU CDKN2B (11736163_a_at) / Fold change /veh CDKN2B (11736163_a_at) / RFU PRF1 (11729649_at) / Fold change /veh PRF1 (11729649_at) / RFU, ZNF638 /// ZNF638-IT1 / Fold change vs veh, ZNF638 /// ZNF638-IT1 / RFU, PANK3 / Fold change vs veh, PANK3 / RFU, SH3YL1 / Fold change vs veh, SH3YL1 / RFU, ZEB2 / Fold change vs veh, ZEB2 / RFU, NRIP1 / Fold change vs veh, NRIP1 / RFU, PTTG1IP / Fold change vs veh, PTTG1IP / RFU, CAPN2 / Fold change vs veh, CAPN2 / RFU, MED14 / Fold change vs veh, MED14 / RFU, SNORA58 / Fold change vs veh, SNORA58 / RFU, C1orf63 / Fold change vs veh, C1orf63 / RFU, LRRFIP1 / Fold change vs veh, LRRFIP1 / RFU, NDUFAF7 / Fold change vs veh, NDUFAF7 / RFU, SLC12A2 / Fold change vs veh, SLC12A2 / RFU, IBTK / Fold change vs veh, IBTK / RFU, ESF1 / Fold change vs veh, ESF1 / Fold change vs veh, TMEM50B / RFU, TAOK1 / Fold change vs veh, TAOK1 / RFU, ACBD3 / Fold change vs veh, ACBD3 / RFU, TMA16 / Fold change vs veh, TMA16 / RFU, RWDD3 / Fold change vs veh, RWDD3 / RFU, BCAT1 / Fold change vs veh, BCAT1 / RFU, EDEM3 / Fold change vs veh, EDEM3 / RFU, TMEM33 / Fold change vs veh, TMEM33 / RFU, WDR75 / Fold change vs veh, WDR75 / RFU, AHCTF1 / Fold change vs veh, AHCTF1 / RFU, TFRC / Fold change vs veh, TFRC / RFU, ZDHHC17 / Fold change vs veh, ZDHHC17 / RFU, NOM1 / Fold change vs veh, NOM1 / RFU, ARL8B / Fold change vs veh, ARL8B / RFU, ZBTB11 / Fold change vs veh, ZBTB11 / RFU, TAMM41 / Fold change vs veh, TAMM41 / RFU, KIAA1704 /// LOC100996395 / Fold change vs veh, KIAA1704 /// LOC100996395 / RFU, ING1 / Fold change vs veh, ING1 / RFU, TRMT61B / Fold change vs veh, TRMT61B / RFU, FUBP3 / Fold change vs veh, FUBP3 / RFU, TP53 / Fold change vs veh, TP53 / RFU, TNKS2 / Fold change vs veh, TNKS2 / RFU, ZFP14 / Fold change vs veh, ZFP14 / RFU, ACTR2 / Fold change vs veh, ACTR2 / RFU, PPP3R1 / Fold change vs veh, PPP3R1 / RFU, PIK3R1 / Fold change vs veh, PIK3R1 / RFU, HNRNPA1 / Fold change vs veh, HNRNPA1 / RFU, RNF170 / Fold change vs veh, RNF170 / RFU, ZNF28 / Fold change vs veh, ZNF28 / RFU, RNGTT / Fold change vs veh, RNGTT / RFU, OGT / Fold change vs veh, OGT / RFU, BRD1 / Fold change vs veh, BRD1 / RFU, MARS / Fold change vs veh, MARS / RFU, ZNF655 / Fold change vs veh, ZNF655 / RFU, FAHD1 / Fold change vs veh, FAHD1 / RFU, BDP1 / Fold change vs veh, BDP1 / RFU, LRRCC1 / Fold change vs veh, LRRCC1 / RFU, ARID1A / Fold change vs veh, ARID1A / RFU, ZNF146 / Fold change vs veh, ZNF146 / RFU, ZNF330 / Fold change vs veh, ZNF330 / RFU, GPN3 / Fold change vs veh, GPN3 / RFU, C9orf123 / Fold change vs veh, C9orf123 / RFU, N4BP2L2 / Fold change vs veh, N4BP2L2 / RFU, ARFIP1 / Fold change vs veh, ARFIP1 / RFU, FAM179B / Fold change vs veh, FAM179B / RFU, BCL10 / Fold change vs veh, BCL10 / RFU, UHRF1BP1L / Fold change vs veh, UHRF1BP1L / RFU, BET1 / Fold change vs veh, BET1 / RFU, CNOT2 / Fold change vs veh, CNOT2 / RFU, ZNF268 / Fold change vs veh, ZNF268 / Fold change vs veh, ZNF507 / RFU, DGCR2 / Fold change vs veh, DGCR2 / RFU, WDSUB1 / Fold change vs veh, WDSUB1 / Fold change vs veh, HSP90B1 /// MIR3652 / RFU, ADSS / Fold change vs veh, ADSS / RFU, GK / Fold change vs veh, GK / RFU, ZNF148 / Fold change vs veh, ZNF148 / RFU, TAF9 / Fold change vs veh, TAF9 / RFU, SLC1A5 / Fold change vs veh, SLC1A5 / RFU, SLMO2 / Fold change vs veh, SLMO2 / RFU, ABCC4 / Fold change vs veh, ABCC4 / RFU, LOC101060439 /// RAP1B / Fold change vs veh, LOC101060439 /// RAP1B / RFU, RFX7 / Fold change vs veh, RFX7 / RFU, GTPBP10 / Fold change vs veh, GTPBP10 / RFU, CNEP1R1 / Fold change vs veh, CNEP1R1 / RFU, BIVM-ERCC5 /// ERCC5 / Fold change vs veh, BIVM-ERCC5 /// ERCC5 / RFU, ILF3 / Fold change vs veh, ILF3 / RFU 11762660_at / Fold change /veh 11762660_at / RFU VCAN (11757783_s_at) / Fold change /veh VCAN (11757783_s_at) / RFU DDX43 (11728927_at) / Fold change /veh DDX43 (11728927_at) / RFU KRT8 (11758188_x_at) / Fold change /veh KRT8 (11758188_x_at) / RFU NKD1 (11759106_at) / Fold change /veh NKD1 (11759106_at) / RFU SRD5A1 (11742802_a_at) / Fold change /veh SRD5A1 (11742802_a_at) / RFU TPSAB1 /// TPSB2 (11721975_s_at) / Fold change /veh TPSAB1 /// TPSB2 (11721975_s_at) / RFU GSTM3 (11746129_a_at) / Fold change /veh GSTM3 (11746129_a_at) / RFU IL23R (11737362_x_at) / Fold change /veh IL23R (11737362_x_at) / RFU TMEM51 (11727254_a_at) / Fold change /veh TMEM51 (11727254_a_at) / RFU PIWIL2 (11732686_x_at) / Fold change /veh PIWIL2 (11732686_x_at) / RFU ORM1 (11744905_x_at) / Fold change /veh ORM1 (11744905_x_at) / RFU CCDC152 (11743942_at) / Fold change /veh CCDC152 (11743942_at) / RFU ECM1 (11717891_a_at) / Fold change /veh ECM1 (11717891_a_at) / RFU IL23R (11748794_a_at) / Fold change /veh IL23R (11748794_a_at) / RFU TNFAIP8L3 (11732012_x_at) / Fold change /veh TNFAIP8L3 (11732012_x_at) / RFU MBOAT4 (11741988_at) / Fold change /veh MBOAT4 (11741988_at) / RFU 11764193_at / Fold change /veh 11764193_at / RFU TMEM53 (11763286_at) / Fold change /veh TMEM53 (11763286_at) / RFU MAGEB2 (11727129_at) / Fold change /veh MAGEB2 (11727129_at) / RFU TMEM200A (11744735_a_at) / Fold change /veh TMEM200A (11744735_a_at) / RFU CCDC152 (11751479_a_at) / Fold change /veh CCDC152 (11751479_a_at) / RFU FAM211A (11726209_a_at) / Fold change /veh FAM211A (11726209_a_at) / RFU RGS16 (11746705_a_at) / Fold change /veh RGS16 (11746705_a_at) / RFU VCAN (11755009_s_at) / Fold change /veh VCAN (11755009_s_at) / RFU RHOB (11743442_s_at) / Fold change /veh RHOB (11743442_s_at) / RFU RGS16 (11720943_a_at) / Fold change /veh RGS16 (11720943_a_at) / RFU RGS16 (11720944_at) / Fold change /veh RGS16 (11720944_at) / RFU, VPS4B / Fold change vs veh, VPS4B / RFU, CREB1 / Fold change vs veh, CREB1 / RFU, DNAJC13 / Fold change vs veh, DNAJC13 / RFU, GNAQ / Fold change vs veh, GNAQ / RFU, CDK5R1 / Fold change vs veh, CDK5R1 / RFU, ZRANB3 / Fold change vs veh, ZRANB3 / RFU, CUL4A / Fold change vs veh, CUL4A / RFU, CCNY / Fold change vs veh, CCNY / RFU, UFL1 / Fold change vs veh, UFL1 / RFU, COG3 / Fold change vs veh, COG3 / RFU, DIAPH2 / Fold change vs veh, DIAPH2 / RFU, SKA2 / Fold change vs veh, SKA2 / RFU, AFF3 / Fold change vs veh, AFF3 / RFU, LMF1 / Fold change vs veh, LMF1 / RFU, IPO11 / Fold change vs veh, IPO11 / RFU, DFFB / Fold change vs veh, DFFB / RFU, FOXP1 / Fold change vs veh, FOXP1 / RFU, CARD8 / Fold change vs veh, CARD8 / RFU, STRN3 / Fold change vs veh, STRN3 / RFU, ADK / Fold change vs veh, ADK / RFU, RASSF2 / Fold change vs veh, RASSF2 / RFU, WIPF1 / Fold change vs veh, WIPF1 / RFU, LARP1B / Fold change vs veh, LARP1B / RFU, RASA1 / Fold change vs veh, RASA1 / RFU, RB1 / Fold change vs veh, RB1 / RFU, PPFIA1 / Fold change vs veh, PPFIA1 / RFU, MAT2A / Fold change vs veh, MAT2A / RFU, CCT5 / Fold change vs veh, CCT5 / RFU, WDR92 / Fold change vs veh, WDR92 / RFU, CUX1 / Fold change vs veh, CUX1 / RFU, TTC7A / Fold change vs veh, TTC7A / RFU, TMEM135 / Fold change vs veh, TMEM135 / RFU, DEPTOR / Fold change vs veh, DEPTOR / RFU, CPM / Fold change vs veh, CPM / RFU, DNAJB6 / Fold change vs veh, DNAJB6 / RFU, CACNA2D3 / Fold change vs veh, CACNA2D3 / RFU, DTX4 / Fold change vs veh, DTX4 / RFU, TFCP2 / Fold change vs veh, TFCP2 / RFU, GMCL1 /// GMCL1P1 / Fold change vs veh, GMCL1 /// GMCL1P1 / RFU, AEBP2 / Fold change vs veh, AEBP2 / RFU, SNHG1 /// SNORD22 /// SNORD25 /// SNORD26 /// SNORD27 /// SNORD28 /// SNORD29 /// SNORD31 / Fold change vs veh, SNHG1 /// SNORD22 /// SNORD25 /// SNORD26 /// SNORD27 /// SNORD28 /// SNORD29 /// SNORD31 / Fold change (Aza/veh), C12orf56 (ProbeSet 11735607_a_at) / Fold change (ACY-1035/veh), C12orf56 (ProbeSet 11735607_a_at) / Fold change (Aza/veh), FGFR1OP (ProbeSet 11751329_s_at) / Fold change (ACY-1035/veh), FGFR1OP (ProbeSet 11751329_s_at) / Fold change (Aza/veh), VPS36 (ProbeSet 11739960_a_at) / Fold change (ACY-1035/veh), VPS36 (ProbeSet 11739960_a_at) / RFU SYPL1 (11715823_x_at) / Fold change /veh SYPL1 (11715823_x_at) / RFU IGFBP7 (11715501_s_at) / Fold change /veh IGFBP7 (11715501_s_at) / RFU REEP3 (11722064_at) / Fold change /veh REEP3 (11722064_at) / RFU IGLL1 (11728026_x_at) / Fold change /veh IGLL1 (11728026_x_at): dose or concentration left out as unconfirmed
Conditions: ProbeSet 11717702_a_at; LIST D

Q: `Nc1ccc(-c2cccs2)cc1NC(=O)c1ccc2c(c1)cc(C1CC1)n2CCN1CCOCC1` [ACY-1035] was tested. Which “Fold change vs veh, RB1” value did it give?
A: 0.96
